| Structure (SMILES) | melting point |
| --- | --- |
| Cc1ncc(CN2CC=C(c3ccccc3)CC2)c(N)n1 | 165 to 166 °C |
| CN1C(=O)CN(C2=CC(C)(C)Oc3ccc(C#N)cc32)C1=O | 188 to 190 °C |
| Cc1cccc2c1cc(C(=O)NCC1CCN(CC3(O)CCOCC3)CC1)c(=O)n2C(C)C | 222 °C |
| CC(=O)OC1CSC(Oc2ccc(C#N)nc2C)C(OC(C)=O)C1OC(C)=O (stereo not drawn) | 128 to 131 °C |
| CC(=O)OC1C2C=CC1C1N=NC21 (stereo not drawn) | 58 °C |
| Cc1nc([C@@H]2C[C@H]2c2ccc3ccccc3n2)cc(-n2nc(C)nc2C)n1 (relative stereo) | 140 to 141 °C |
| CCN(c1c(-c2ccccc2)[nH]c(C)c1C(=O)c1ccccc1)S(=O)(=O)c1ccc(C)cc1 | 224 to 225 °C |
| Cc1nc2c(N)nc3ccccc3c2n1C | 288 to 290 °C |
| CCOC(=O)c1cccc(-c2ccc(F)c3cc(CO)sc23)c1 | 89 to 90 °C |
| NC(=O)c1ccc(CCN2CC=C(c3c[nH]c(-c4ccc(F)cc4)c3-c3ccncc3)CC2)cc1 | 202 to 204 °C |
| COc1ccc(CC(=O)Nc2c(C)c(C)c3c(c2C)C(c2ccc(C(C)C)cc2)C(C)(C)O3)cc1 (stereo not drawn) | 171 to 173 °C |
| O=C(OCC1CC1)c1ncn2c1[C@@H]1CCCN1C(=O)c1c(Br)cccc1-2 | 135 to 136 °C |
| CCCC(C)CNc1cccc(-c2ccnc3c(C(=O)c4cccs4)cnn23)c1 (stereo not drawn) | 133 to 135 °C |
| ON=C1CCC(O)(c2ccccc2Cc2ccccc2)CC1 (stereo not drawn) | 137 to 138 °C |
| CC(O)(C#Cc1ccc(S(=O)(=O)c2ccncc2)cc1)C(F)(F)F (stereo not drawn) | 122 to 125 °C |
| O=C(O)COc1cc2c(-c3ccccc3)csc2c(Cl)c1Cl | 152 to 154 °C |
| O=c1oc2ccc(O)cc2c(O)c1-c1ccccc1 | 261 to 263 °C |
| COc1ccc(Cc2cc(C(C)(C)C)cc(C(C)(C)C)c2O)cc1 | 84 to 85 °C |
| Cc1cc(C(=O)NC2=NCCC2(c2ccccc2)c2ccccc2)[nH]n1 | 213 to 215 °C |
| CCCOc1ccccc1C1C(C(=O)OCC)=C(CCC)Nc2n[nH]cc21 (stereo not drawn) | 205 °C |

The next lines start with the values.

| melting point | Structure (SMILES) |
| --- | --- |
| 52 to 54 °C | CNC(=O)CNc1c(C)cccc1C |
| 222 to 224 °C | COc1cccc(CNc2cc(C(N)=O)c([N+](=O)[O-])cc2[N+](=O)[O-])c1 |
| 129 to 131 °C | Nc1ncc(-c2ccccc2)nc1Oc1ccccc1 |
| 170 to 172 °C | CC(C)c1[nH]n(-c2c(Cl)cccc2Cl)c2nc(Cc3ccc(CC(=O)NCCN(C)C)cc3)nc(=O)c1-2 |
| 155 to 160 °C | CC1=NC2CN=C(c3ccccc3)c3cc(Cl)ccc3C2C(=O)N1 (stereo not drawn) |
| 128 to 129 °C | Nc1cc(Cl)nn1-c1c(Cl)cc(C(F)(F)F)cc1Cl |
| 84 to 122 °C | CC(C)CC(NC(=O)C(Cc1ccccc1)NC(=O)C1CCCCC1C(=O)O)C(=O)O (stereo not drawn) |
| 105 to 107 °C | COC(=O)[C@@H]1C/C=C/COc2ccc(cc2)C[C@H](NC(=O)OC(C)(C)C)C(=O)N[C@@H](C(C)C)C(=O)N1 |
| 152 to 155 °C | CCOC(=O)CNC(=O)c1nnc2ccc(NCCCN3CCC(OC(c4ccccc4)c4ccccc4)CC3)nn12 |
| 190 to 191 °C | Cc1cc(CNC2CCCN(C(=O)c3ccc(Nc4nccc(Nc5ccc(F)cc5)n4)cc3)C2)no1 (stereo not drawn) |
| > 260 °C | O=C1CCC2=C1C(c1ccc(Cl)c(Cl)c1)C1=C(CCS1)N2 (stereo not drawn) |
| 121 to 122 °C | COc1ccc(NC(=O)OCC2(C(C)=O)CC3C=CC2C3)cc1C (stereo not drawn) |
| 141 to 143 °C | CSc1nc(NCc2ccc(-c3ccsc3)cc2)n2ncc(C(C)C)c2n1 |
| 190 to 191 °C | COC1(NC(=O)c2ccccc2)CC1 |
| 177 to 178 °C | Cc1nc(-c2ccc(-c3cscn3)c(C)c2)c(-c2ccc(S(C)(=O)=O)c(F)c2)o1 |
| 110 to 111 °C | ON1Cc2ccccc2C1=S |
| 337 to 339 °C | C[C@H](NC(=O)c1c[nH]c2ncc(-c3cn(-c4cccc(Cl)c4)cn3)nc12)C(C)(C)C |
| > 300 °C | O=C(Nc1cc(C(=O)O)cc(C(=O)O)c1)Oc1ccc([N+](=O)[O-])cc1 |

— a melting point compilation (Tetko et al.; mined from patent text by program, amines drawn as free bases though some values may be those of a salt)
